Reference: US20150250902A1, “pH-RESPONSIVE GADOLINIUM NANOPARTICLE CONJUGATES AND USES THEREOF” (Colorado School of Mines, priority 2014, published 2015)

Assay: In vitro MRI relaxivity of gold/Gd nanoparticles and clinical contrast agents
From the text: In vitro MRI of Gadolinium Nanoparticles and Polymer Modified Gadolinium Nanoparticles. In order to provide information about the clinical imaging viability of the polymer modified gold/Gd nanoparticles as a positive contrast agent, in vitro MRI was employed to determine relaxation properties of the unmodified and polymer modified gold/Gd nanoparticles. Table 1 compares the MRI longitudinal and transverse relaxivities, r1 and r2, respectively, of PNIPAM-modified gold/Gd nanoparticles and gold/Gd unmodified nanoparticles to the clinically employed contrasts agents, gadopentetate dimeglumine (Magnevist®) and gadobenate dimeglumine (Multihance®). […] By taking advantage of these properties, novel theragnostic polymer-modified gold/Gd nanoparticles could be produced and exploited as contrast agents for conventional T1 MR imaging.

Compound | r1 (MRI longitudinal relaxivity)
CNC[C@H](O)[C@@H](O)[C@H](O)[C@H](O)CO.CNC[C@H](O)[C@@H](O)[C@H](O)[C@H](O)CO.O=C([O-])CN(CCN(CC(=O)[O-])CC(=O)O)CCN(CC(=O)[O-])CC(=O)O.[Gd+3] [Magnevist ®, gadopentetate dimeglumine] | 6.95 mM⁻¹ s⁻¹
CNC[C@H](O)[C@@H](O)[C@H](O)[C@H](O)CO.CNC[C@H](O)[C@@H](O)[C@H](O)[C@H](O)CO.O=C([O-])CN(CCN(CC(=O)[O-])CC(=O)O)CCN(CC(=O)O)C(COCc1ccccc1)C(=O)[O-].[Gd+3] (centres unmarked) [Multihance ®, gadobenate dimeglumine] | 17.7 mM⁻¹ s⁻¹
